Publication PMC7725506, “Functional Diversification of SRSF Protein Kinase to Control Ubiquitin-Dependent Neurodevelopmental Signaling” (Developmental Cell, 2020)

What was measured:
SRPK2 [1] = target: T1, SRPK2 (Homo sapiens, UniProt P78362); test: Inhibition of RNF12 phosphorylation in vitro by SRPK2 (phospho-Ser214 immunoblot, dose-response); type: biochemical; conditions: only this inhibitor of SRPIN340, SPHINX31, SRPKIN-1
Procedure: Cells were lysed, and 1.5 mg of protein immunoprecipitated with 2 μg of SRPK1 or SRPK2 antibodies (BD Biosciences). Immunoprecipitates were then washed with lysis buffer supplemented with 500 mM NaCl and half of the sample was resuspended in loading buffer. The remainder was subjected to in vitro phosphorylation assay containing 0.5 μg RNF12 and 2 mM ATP in kinase buffer (50 mM Tris-HCl [pH 7.5], 0.1 mM EGTA, 10 mM MgCl2, 2 mM DTT) and incubated at 30°C for 30 min. […] For radioactive in vitro kinase assays, reactions were supplemented with 1 μCi γ-^32P ATP. Reactions were incubated at 30°C for 30 min in presence or absence of inhibitor as indicated and samples subjected to polyacrylamide electrophoresis and immunoblot or Coomassie blue staining and signal detected via ECL, infrared detection or autoradiography.
Supplemental Figure Legends
(Related to Figure 1). (A) Wild-type (WT) mESCs were analysed for protein copy number by absolute quantitative proteomics. […]
Data are represented as mean ± S.E.M. (n=3). […] ND = not detected. (B) Inhibition of RNF12 phosphorylation in vitro by SRPK1 and SRPK2 in the presence of varying concentrations of the indicated SRPK inhibitors was determined by immunoblotting for RNF12 phospho-Ser214 (Left). […] Immunoblots were quantified to generate SRPK inhibitor dose-response curves for inhibition of RNF12 phosphorylation by SRPK1 and SRPK2 in vitro (Right). […]

SRPK2 [2] = target: T1, SRPK2; test: REX1 fluorescent ubiquitylation assay with recombinant RNF12 incubated with SRPK2; type: biochemical; conditions: pre-incubation with 10 μM
Procedure: Infrared scans of ubiquitylated substrate signal (Top) and quantification (Bottom). Data represented as mean ± SEM (n = 3). […] (^∗) p = 0.0350. Phospho-Ser214 and total RNF12, REX1, and SRPK2 infrared immunoblots are shown. ^∗ = non-specific fluorescent signal. (B) Recombinant RNF12 was incubated with WT or kinase dead (KD) SRPK2 and subjected to REX1 fluorescent ubiquitylation assays. Infrared scans of ubiquitylated substrate signal (Top) and quantification (Bottom). Data represented as mean ± SEM (n = 3). […] (^∗∗∗∗) p < 0.0001. Phospho-Ser214 and total RNF12, REX1, and SRPK2 infrared immunoblots are shown. ^∗ = non-specific fluorescent signal. (C) Recombinant RNF12 was incubated with WT or KD SRPK2 and SMAD7 ubiquitylation assessed. Infrared scans of ubiquitylated substrate signal (Top) and quantification (Bottom). Data represented as mean ± SD (n = 2). Phospho-Ser214 and total RNF12, REX1, and SRPK2 infrared immunoblots are shown. ^∗ = non-specific fluorescent signal. (D) Recombinant RNF12 was incubated with WT (pRNF12) or KD (unpRNF12) SRPK2 and subjected to E2 ubiquitin discharge assay. Infrared immunoblot scans (Top Left), reaction rate determinations (Top Right) and normalized quantification of E2-ubiquitin conjugate signal (Bottom) are shown. […] RNF12, REX1, phospho-Ser214 RNF12 and SRPK1 infrared immunoblots (Top) and RNF12-REX1 binding quantification (bottom) are shown. […]

T1 sequence (P78362 1-699 isoform P78362-2): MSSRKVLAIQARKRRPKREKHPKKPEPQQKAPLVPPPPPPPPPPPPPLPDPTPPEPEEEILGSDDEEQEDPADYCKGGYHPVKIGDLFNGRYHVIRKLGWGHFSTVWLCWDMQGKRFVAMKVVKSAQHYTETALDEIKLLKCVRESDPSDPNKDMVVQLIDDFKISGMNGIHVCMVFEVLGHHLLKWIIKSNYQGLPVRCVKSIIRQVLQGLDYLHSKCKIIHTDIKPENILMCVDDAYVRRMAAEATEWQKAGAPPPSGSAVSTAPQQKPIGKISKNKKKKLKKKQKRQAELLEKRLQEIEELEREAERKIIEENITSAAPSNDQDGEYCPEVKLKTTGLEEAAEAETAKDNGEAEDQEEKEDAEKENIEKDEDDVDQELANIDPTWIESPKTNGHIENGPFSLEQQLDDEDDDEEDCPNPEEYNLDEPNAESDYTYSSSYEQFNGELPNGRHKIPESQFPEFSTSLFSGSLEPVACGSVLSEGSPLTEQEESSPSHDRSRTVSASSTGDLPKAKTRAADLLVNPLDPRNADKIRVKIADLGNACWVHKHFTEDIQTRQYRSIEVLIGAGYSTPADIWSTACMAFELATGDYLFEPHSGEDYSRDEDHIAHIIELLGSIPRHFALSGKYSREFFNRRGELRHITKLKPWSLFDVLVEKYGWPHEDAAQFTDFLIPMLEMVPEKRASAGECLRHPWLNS

## CCc1cc2c(cc1-c1cccc(S(=O)(=O)F)c1)C(C)(C)c1[nH]c3cc(C#N)ccc3c1C2=O [SRPKIN-1]
SRPK2 [1]
  inhibition of SRPK2: potently inhibited
SRPK2 [2]
  enhancement of REX1 ubiquitylation following RNF12 phosphorylation by SRPK2: not observed
